Measured values taken from patent US8334261B2, “Osteopenia animal model” (Oriental Yeast Co., Ltd., priority 2006, dated 2012).

Columns and labels:
[1] = tested on: 7-week-old female C57BL/6N mice; test: GST-RANKL administration test (57 and 426 nmol); assay type: in vivo, mouse
Method: GST-RANKL was intraperitoneally administered 3 times to groups of 7-week-old female C57BL/6N mice (10 individuals each) at doses of 57 nmol (low dose) and 426 nmol (high dose) every 24 hours. Exsanguination was performed 1.5 hours after the 3rd administration. A group to which PBS was administered in the same manner as above was used as a control group for comparison.
The exsanguinated blood was subjected to measurement of serum bone resorption parameters (calcium, CTx, TRAP-5b) and serum osteogenesis parameters (osteocalcin and alkaline phosphatase (ALP)). Calcium was measured by the OCPC method (WAKO, 272-21801). CTx (Nordic Bioscience Diagnostics), TRAP-5b (IDS Ltd, SB-TR103), and osteocalcin (Biomedical Technologies Inc.) were measured by ELISA. ALP was measured by the Bessey-Lowry method (WAKO, 274-04401).
The following organs were collected from each exsanguinated mouse: the femur, the tibia, the cerebrum, the lungs, the heart, the liver, the thymus, the spleen, the kidneys, and the skin. Naturally occurring lesions were observed by HE staining of the cerebrum, the lungs, the heart, the liver, the thymus, the spleen, the kidneys, and the skin.
Regarding the femur, the cancellous bone was subjected to bone density measurement with the use of pQCT at points 0.6 mm, 0.8 mm, and 1.0 mm from the distal growth plate on the proximal side at the distal end of the femur. Regarding the tibia, tibia sections were prepared for bone morphology measurement. Measurement values were compared with those for a control group by the Dunnett method for testing.

[2] = tested on: 7-week-old female C57BL/6N mice; test: Tibial bone morphology measurement after GST-RANKL 2 mg/kg; assay type: in vivo, mouse; conditions: 2 mg/kg i.p. 3 times
Method: GST-RANKL was intraperitoneally administered 3 times to groups of 7-week-old female C57BL/6N mice at 2 mg/kg every 24 hours, followed by dissection. The tibia of each mouse was subjected to toluidine blue staining and morphology measurement. A solvent (PBS) was administered to the control group in the same manner as above. The GST-RANKL intraperitoneal administration group was subjected to tibial bone morphology measurement. The unit bone mass (BV/TV), the trabecular width (Tb.Th), and the trabecular number (Tb.N) decreased by approximately 30% (p<0.03), approximately 10% (P<0.03), and approximately 20% (p<0.05), respectively, compared with those for the control group (FIGS. 29 to 31). In addition, the osteoid thickness (O.Th), the eroded surface area (ES/BS), the osteoclast number (N.Oc/B.Pm), and the osteoclast surface area (Oc.S/BS) increased, respectively, to approximately 1.2-fold (p<0.04), approximately 1.8-fold (p<0.001), approximately 1.9-fold (p<0.001), and approximately 1.8-fold (p<0.001) as high as those for the control group (FIGS. 32 to 35). In addition, the sections obtained in this Example were subjected to TRAP staining. […] That is, the osteopenia mechanism induced by GST-RANKL administration involves promotion of bone resorption, but not reduction in osteogenesis. However, the aforementioned coupling phenomenon causes promotion of osteogenesis depending on the GST-RANKL dose, the number of doses, and the period of time elapsed after administration, which might results in an increase in the osteoblast surface area.

[3] = tested on: 7-week-old female ICR mice; test: Evaluation of mice of the other lineages (ICR); assay type: in vivo, mouse
Method: GST-RANKL was intraperitoneally administered 3 times to groups of 7-week-old female ICR mice at 1 mg/kg every 24 hours. The femur and serum were collected from each mouse 1.5 hours after the 3rd administration and compared with those of the PBS administration group. Regarding bone metabolism markers, TRAP-5b, calcium (Ca), and alkaline phosphatase (ALP) in the serum were measured. Each femur was subjected to bone density measurement with pQCT and image analysis with micro CT.

[4] = tested on: 7-week-old female Fischer rats; test: Examination with Fischer rats; assay type: in vivo, rat
Method: GST-RANKL was intraperitoneally administered 3 times to 7-week-old female Fischer rats at 1 mg/kg every 24 hours. The serum and femur were collected from each mouse 1.5 hours after the 3rd administration, followed by comparison with the PBS administration group. The serum of each mouse was subjected to measurement (with the use of an SB-TR102 kit, IDS Ltd.) of the Ca and TRAP-5b concentrations serving as bone resorption markers and the ALP concentration serving as an osteogenesis marker. Each femur was subjected to bone density measurement with pQCT and image analysis with micro CT.

[5] = tested on: GST-RANKL-administered, ovariectomized 7-week-old female C57BL/6N mice; test: Drug evaluation with a selective estrogen receptor modulator (raloxifene) in GST-RANKL/OVX mice; assay type: in vivo, mouse
Description: In addition, PBS (i.p.) and ultrapure water (p.o.) were used as control substances for comparison with GST-RANKL and raloxifene, respectively, upon administration.
The serum collected from each mouse was subjected to measurement of serum bone resorption markers (Ca and TRAP-5b) and an osteogenesis marker (ALP). Each femur was subjected to measurement of the bone density, the bone mineral content, and the cortical bone thickness with pQCT at points 0.6, 0.8, 1.0 mm from the distal growth plate on the proximal side. In addition, image analysis was carried out with micro CT.

[6] = high dose 426 nmol i.p. 3 times
[7] = GST-RANKL administration+OVX group, 1.0 mm

## GST-RANKL: fused protein of Glutathione S-transferase with human RANKL residues 140-317, expressed in Escherichia coli, 47.0 kDa
[1]; 57 and 426 nmol, cerebrum, lungs, heart, liver, thymus, spleen, kidneys, skin
  abnormal findings and lesions in organs (HE staining): not observed
[1]; high dose 426 nmol
  femur bone morphology with micro CT: significant bone decreases
  serum ALP concentration: did not vary
  serum osteocalcin concentration: did not vary
  tibial osteoblast surface area: significant osteoblast surface area increase
  tibial osteoclast number: increased
  tibial trabecular number decrease: approximately 50%
  tibial unit bone mass decrease: approximately 50%
[1]; [6]
  serum CTx concentration, fold as high as control: approximately 1.5 fold
  serum TRAP-5b concentration, fold as high as control: approximately 1.5 fold
[1]; high dose 426 nmol i.p. 3 times every 24 hours, 1.5 hours after 3rd administration
  serum Ca concentration, fold as high as control: approximately 1.4 fold
[1]; high dose 426 nmol, 0.6 mm from distal growth plate
  femur bone density decrease (pQCT): 10%
[1]; high dose 426 nmol, 0.8 mm
  femur bone density decrease (pQCT): 23%
[1]; high dose 426 nmol, 1.0 mm
  femur bone density decrease (pQCT): 20%
[1]; low dose 57 nmol
  femur bone density (pQCT) vs control: no significant difference
  serum ALP concentration: did not vary
  serum osteocalcin concentration: did not vary
  tibial trabecular number: no decrease was observed
  tibial unit bone mass: no decrease was observed
[2]
  osteoblast surface area: no increase
[2]; tibia
  eroded surface area (ES/BS), fold as high as control: approximately 1.8 fold
  osteoclast number (N.Oc/B.Pm), fold as high as control: approximately 1.9 fold
  osteoclast surface area (Oc.S/BS), fold as high as control: approximately 1.8 fold
  osteoid thickness (O.Th), fold as high as control: approximately 1.2 fold
  trabecular number (Tb.N) decrease vs control: approximately 20%
  trabecular width (Tb.Th) decrease vs control: approximately 10%
  unit bone mass (BV/TV) decrease vs control: approximately 30%
[2]; tibia sections
  osteoclast number by TRAP staining: greater than that for the control group
[3]; 1 mg/kg i.p. 3 times
  serum ALP concentration: no changes
  serum Ca concentration vs control: no changes
  serum TRAP-5b concentration, fold as high as PBS group: 1.8 fold
[3]; 1.0 mm
  femur bone density decrease vs control: approximately 20%
[3]; 1.2 mm
  femur bone density decrease vs control: approximately 20%
[3]; 1.4 mm
  femur bone density decrease vs control: approximately 22%
[4]; 1 mg/kg i.p. 3 times
  serum ALP concentration vs control: no changes
  serum Ca concentration vs control: no changes
  serum TRAP-5b concentration vs control: no changes
[4]; 3 mm from the distal growth plate
  femur bone density decrease: approximately 20%
[5]; GST-RANKL administration+OVX group
  serum ALP concentration vs PBS+Sham group: tended to increase
[5]; [7]
  cortical bone mineral content decrease vs PBS+Sham group: 49%
  cortical bone thickness decrease vs PBS+Sham group: 49%
[5]; GST-RANKL administration+OVX group, no significant difference
  total bone density vs PBS+Sham group: tended to decrease
[5]; among the all groups
  cancellous bone density (pQCT): no significant differences
